Reference: patent publication US3959300A, “Novel indolobenzazepine derivatives, useful as tranquilizers” (priority 1974, dated 1976)

What was measured:
Format in all cases: in vivo
[1] = system: amphetamine hyperactivity; assay: Mouse Anti-Amphetamine Activity (A.A.); conditions: po, mouse, d-amphetamine sulfate 5 mg/kg sc 1 hour after compound, 60 minutes recording; for ED50: read-out: A.A. (mouse) ED50
Protocol: (§1) Results given in: mg/kg po/mouse
Mouse Anti-Amphetamine Activity: Groups of 5 mice are given d-amphetamine sulfate 5 mg/kg sc 1 hour after oral administration of graded doses of test compound. The mice are placed in photocell activity units immediately after amphetamine administration and locomotor activity is recorded for 60 minutes. The ED50 is calculated as the dose causing a 50% reduction in locomotor activity relative to the activity of the amphetamine-treated control mice. Amphetamine antagonism at non-toxic doses appears to correlate with major tranquilizer activity in man.

taming = assay: Rhesus Monkey Taming Effects; conditions: po, rhesus monkey; for minimal effective dose: Macaca mulatta, read-out: Taming (monkey) MED
Protocol: Results given in: mg/kg po/monkey
Rhesus Monkey Taming Effects: Compounds are administered orally to groups of six rhesus monkeys. The behavior of the animals is then evaluated by observational means. Taming effects are determined by the ability of the observer to approach and touch the monkey. Compounds with major tranquilizer activity in man can produce a state of passive tameness in the rhesus monkey wherein it can be touched without provoking any of the threatening or aggressive behavior seen in the normal animal. The MED is the minimal oral dose at which some taming effect can be observed.

locomotor activity = assay: Mouse Screen (decrease in locomotor activity); conditions: po, mouse, lowest dose producing obvious decrease in locomotor activity; for minimal effective dose: read-out: Screen (mouse) MED
Excerpt: as §1
Mouse Screen: The minimal effective dose (MED) is the lowest oral dose producing an obvious decrease in locomotor activity, using observational techniques. Groups of 3 mice are given decreasing oral doses at 0.5 log intervals (300, 100, 30 . . . etc.) until no behavioral effects are evident. Decrease of locomotor activity is indicative of general central nervous system depressant activity.

[2] = system: Conditioned Avoidance Response; assay: Mouse Conditioned Avoidance Response (C.A.R.); conditions: po, mouse, tested 1, 2, and 4 hours after administration; for ED50: read-out: C.A.R. (mouse) ED50
Protocol: (§2) Results given in: mg/kg po/mouse mg/kg po/rat
(§3) Mouse and Rat Conditioned Avoidance Response: Mice and rats are trained to jump out of a pit onto a ledge to avoid shock when presented with a light and sound conditioned stimulus. The animals are tested 1, 2, and 4 hours after administration of the test compound. Three to 4 dose levels and groups of 4-8 animals/dose are used. The ED50 is the dose producing a block of the C.A.R. in 50% of the animals. Blocking of the C.A.R. at non-toxic doses appears to correlate with major tranquilizer activity in man.

[3] = system: Conditioned Avoidance Response; assay: Dog Conditioned Avoidance Response (C.A.R.); conditions: po, dog, 1, 2, and 4 hours after administration; for ED50: Canis lupus familiaris, read-out: C.A.R. (dog) ED50
Protocol: Results given in: mg/kg po/dog
Dog Conditioned Avoidance Response: Dogs are trained to raise a forelimb when presented with a conditioned stimulus (light) in order to avoid an electric shock. Blocks of 10 trials are given to groups of four dogs during a pretreatment period and at 1, 2, and 4 hours after oral administration of test compound. The ED50 values are calculated as the dose causing 50% of the animals to show five or more incorrect responses. Blocking of the C.A.R. at non-toxic doses appears to correlate with major tranquilizer activity in man.

[4] = system: Conditioned Avoidance Response; assay: Rat Conditioned Avoidance Response (C.A.R.); conditions: po, rat, tested 1, 2, and 4 hours after administration; for ED50: read-out: C.A.R. (rat) ED50
Protocol: as §2, §3

[5] = system: approach-avoidance ("conflict") situation; assay: Rat Conflict (Approach-Avoidance) Test; conditions: for Conflict (rat) MED / minimal effective dose: po, reexposed after 1 or 2 hours, rat; for minimal effective dose: read-out: Conflict (rat) MED
Protocol: Results given in: mg/kg po/rat
Rat Conflict (Approach-Avoidance) Test: Food deprived rats are trained to pass from one compartment to an adjacent one to obtain food. The training consists of three exposures to the test situation on day one of the experiment. The rats are given limited (1-2 hr) free access to food in their home cages on day one and are then food deprived for at least 18 hours. On day two of the experiment, the rats are given a control exposure to the test situation followed by a second exposure after 1/2 to 1 hour in which they are shocked after crossing and eating. Groups of 6-8 rats are then dosed orally with solvent or test compound and then reexposed to the test situation after 1 or 2 hours.
This effect is dose-related (and the MED is the minimum dose at which this effect is obtained); rats dosed with solvent only consistently show a high level of fear as evidenced by decreased mobility and absence of feeding when placed in the test situation after receiving a shock.

Row | Compound | A.A. (mouse) ED50 [1] [mg/kg] | Taming (monkey) MED (taming) [mg/kg] | Screen (mouse) MED (locomotor activity) [mg/kg] | C.A.R. (mouse) ED50 [2] [mg/kg] | Conflict (rat) MED [5] [mg/kg] | further results
1 | 1,2,3,4,8,9-hexahydro-3-[(4-methylbicyclo[2.2.2]oct-1-yl)methyl]pyrido[4',3':2,3]indolo[1,7-ab][1]benzazepine hydrochloride [Example 15] | 3 to 10 | > 10 | 10 to 30 | 10 to 30 |  | 
2 | 1,2,3,4,8,9-hexahydro-3-[(4-methylbicyclo[2.2.2]oct-2-en-1-yl)methyl]pyrido[4', 3':2,3]indolo[1,7-ab][1]benzazepine hydrochloride [Example 16] | 60 | 20 | 100 to 300 | 30 to 60 | 10 to 20 | C.A.R. (dog) ED50 [3]: > 10 mg/kg; C.A.R. (rat) ED50 [4]: 30 mg/kg
3 | 1,2,3,4,8,9-hexahydro-3-[(trans-2-methylcyclopropyl)methyl]pyrido[4',3':2,3]indolo[1,7-ab][1]benzazepine hydrochloride [No. 4] | 6 | 3 to 10 | 10 to 30 | 20 | > 40 | 
4 | 1,2,3,4,8,9-hexahydropyrido[4', 3':2,3] indolo[1,7-ab][1]benzazepine [Example 1] | 10 | 20 to 30 | 10 to 30 | > 40 | > 40 | C.A.R. (rat) ED50 [4]: > 40 mg/kg
5 | 3-(1-adamantylmethyl)-1,2,3,4,8,9-hexahydropyrido[4',3':2,3]indolo[1,7-ab][1]benzazepine hydrochloride [No. 11] | 1 | 1 to 3 | 3 to 10 | 1 to 3 | > 40 | C.A.R. (rat) ED50 [4]: 6 mg/kg
6 | 3-(1-cyclopropylethyl)-1,2,3,4,8,9-hexahydropyrido[4',3':2,3]indolo[1,7-ab][1]benzazepine hydrochloride [Example 20] |  |  | 30 to 100 |  |  | 
7 | 3-(2-adamantylmethyl)-1,2,3,4,8,9-hexahydropyrido[4',3':2,3]indolo[1,7-ab][1]benzazepine hydrochloride [Example 11] | > 100 |  | 100 to 300 | 30 |  | C.A.R. (rat) ED50 [4]: > 40 mg/kg
8 | 3-(2-butynyl)-1,2,3,4,8,9-hexahydropyrido[4',3':2,3]indolo[1,7-ab][1]benzazepine hydrochloride [No. 20] | 6 | 1 to 3 | 10 to 30 | 10 to 30 | > 40 | C.A.R. (dog) ED50 [3]: > 40 mg/kg
9 | 3-(exo-7-norcarylmethyl)-1,2,3,4,8,9-hexahydropyrido[4',3':2,3]indolo[1,7- ab][1]benzazepine hydrochloride [No. 10] | 3 to 10 | 10 | 10 to 30 | 10 to 30 |  | 
10 | 3-[(2,3-dimethyl-2-cyclopropen-1-yl)methyl]-1,2,3,4,8,9-hexahydropyrido[4',3':2,3]indolo[1,7-ab][1]benzazepine hydrochloride [No. 12] |  |  | 10 to 30 |  |  | 
11 | 3-[(3-cyclohexen-1-yl)methyl]-1,2,3,4,8,9-hexahydropyrido[4',3':2,3]indolo[1,7-ab][1]benzazepine hydrochloride [No. 9] | 5 |  | 3 to 10 |  |  | 
12 | 3-[(cis,cis-2,3-dimethylcyclopropyl)methyl]-1,2,3,4,8,9-hexahydropyrido[4',3':2,3]indolo[1,7-ab][1]benzazepine hydrochloride [No. 14] | 20 | > 20 | 10 to 30 | 20 |  | 
13 | 3-[cis-1,6-dimethyl-endo-3-norcaren-7-yl)methyl]-1,2,3,4,8,9-hexahydropyrido[4',3':2,3]indolo[1,7-ab][1]benzazepine [No. 13] |  |  | 1 to 3 |  |  | 
14 | 3-isobutyl-1,2,3,4,8,9-hexahydropyrido-[4', 3':2,3]indolo[1,7-ab ][1]benzazepine hydrochloride [No. 1, reference compound] | > 100 | > 20 | 100 to 300 |  | > 40 | C.A.R. (rat) ED50 [4]: > 40 mg/kg
15 | CC1(CN2CCc3c(c4cccc5c4n3-c3ccccc3CC5)C2)CC1.Cl [No. 5, 1,2,3,4,8,9-hexahydro-3-[(1-methylcyclopropyl)methyl]pyrido[4',3':2,3]indolo[1,7-ab][1]benzazepine hydrochloride] |  |  |  |  |  | ED50 [3]: 10 to 20 mg/kg; ED50 [1]: 3 to 10 mg/kg; minimal effective dose [5]: 10 to 20 mg/kg; minimal effective dose (taming): 10 to 30 mg/kg; minimal effective dose (locomotor activity): 10 to 30 mg/kg; ED50 [2]: 10 to 30 mg/kg
16 | Cl.c1ccc2c(c1)CCc1cccc3c4c(n-2c13)CCN(CC1CCC1)C4 [No. 6, 3-(cyclobutylmethyl)-1,2,3,4,8,9-hexahydropyrido[4',3':2,3]indolo[1,7-ab][1]benzazepine hydrochloride] |  |  |  |  |  | ED50 [3]: 20 mg/kg; ED50 [4]: 4 mg/kg; ED50 [1]: 20 mg/kg; minimal effective dose [5]: > 40 mg/kg; minimal effective dose (taming): 1 to 3 mg/kg; minimal effective dose (locomotor activity): 10 to 30 mg/kg; ED50 [2]: 6 mg/kg
17 | Cl.c1ccc2c(c1)CCc1cccc3c4c(n-2c13)CCN(CC1CCCC1)C4 [No. 7, 3-(cyclopentylmethyl)-1,2,3,4,8,9-hexahydropyrido[4',3':2,3]indolo[1,7-ab][1]benzazepine hydrochloride] |  |  |  |  |  | ED50 [3]: 6 mg/kg; ED50 [4]: 30 mg/kg; ED50 [1]: 2 mg/kg; minimal effective dose [5]: > 40 mg/kg; minimal effective dose (taming): 1 to 3 mg/kg; minimal effective dose (locomotor activity): 3 to 10 mg/kg; ED50 [2]: 20 mg/kg
18 | Cl.c1ccc2c(c1)CCc1cccc3c4c(n-2c13)CCN(CC1CCCCC1)C4 [No. 8, 3-(cyclohexylmethyl)-1,2,3,4,8,9-hexahydropyrido[4',3':2,3]indolo[1,7-ab][1]benzazepine hydrochloride] |  |  |  |  |  | ED50 [3]: 10 mg/kg; ED50 [4]: 30 mg/kg; ED50 [1]: 2 mg/kg; minimal effective dose [5]: > 40 mg/kg; minimal effective dose (taming): 1 to 3 mg/kg; minimal effective dose (locomotor activity): 3 to 10 mg/kg; ED50 [2]: 20 mg/kg
19 | C#CCN1CCc2c(c3cccc4c3n2-c2ccccc2CC4)C1.Cl [No. 19, 1,2,3,4,8,9-hexahydro-3-(2-propynyl)pyrido[4',3':2,3]indolo[1,7-ab][1]benzazepine hydrochloride] |  |  |  |  |  | ED50 [1]: 30 to 100 mg/kg; minimal effective dose (locomotor activity): 10 to 30 mg/kg; ED50 [2]: 20 mg/kg
20 | CCCC(C)(COC(N)=O)COC(N)=O [meprobamate, reference compound] |  |  |  |  |  | decreased fear in the test animals, in words ([5]; rats cross to obtain food despite earlier shock, dose-related): apparent decreased fear in the test animals
